# From article PMC7897990, “TriTOX: A novel Trichomonas vaginalis assay platform for high-throughput screening of compound libraries” (International Journal for Parasitology: Drugs and Drug …, 2021)
# Where two headings read alike, the source gives them in different places.
# What was measured:
# [1] = test system: Trichomonas vaginalis G3 trophozoites; settings: for T.vaginalis_Absorbance_Rep1: replicate 1, raw absorbance; for T.vaginalis_Absorbance_Rep2: replicate 2, raw absorbance
# [2] = test system: nontumorigenic neonatal foreskin fibroblast (NFF) cell line
# [3] = HTS single concentration, parasite screen 1 µg/mL, replicate 1
# [4] = HTS single concentration, parasite screen 1 µg/mL, replicate 2
# [5] = NFF_NS1 screen 5 µg/mL, single concentration
# [6] = HTS, parasite screen at 1 µg/mL, replicate 1
# [7] = HTS, parasite screen at 1 µg/mL
# [8] = HTS, parasite screen at 1 µg/mL, replicate 2
# [9] = replicate 1, parasite screen at 1 µg/mL
# [10] = replicate 2, parasite screen at 1 µg/mL
# [11] = NFF fibroblast screen at 5 µg/mL, A = active, I = inactive
# [12] = parasite screen at 1 µg/mL, replicate 1
# [13] = parasite screen at 1 µg/mL, replicate 2
# [14] = NFF_NS1 screen at 5 µg/mL, NFF cells
compound,measurement,setting,value
COC1=CC(C)=CC(C)C(O)C(C)CC(C)=CC=CC(OC)C(C(C)C(O)C(C)C2(O)CC(O)C(C)C(C(C)C)O2)OC1=O (stereo not drawn) [BIA-B1012],T.vaginalis_%inb_Rep1,[1]; [3],15.99%
same,T.vaginalis_%inb_Rep2,[1]; [4],16.70%
same,NFF_Activity,[2]; [5],I (otherwise these were reported as inactive (I))
COc1ccc2c3c([nH]c2c1)[C@H](C=C(C)C)N1C(=O)[C@@H]2CCCN2C(=O)[C@@H]1C3 [Fumitremorgin C],T.vaginalis_%inb_Rep1,[1]; [6],12.68%
same,T.vaginalis_Absorbance_Rep1,[1]; [7],0.952
same,T.vaginalis_%inb_Rep2,[1]; [8],4.11%
same,T.vaginalis_Absorbance_Rep2,[1]; [7],0.699
same,NFF_Activity,[2]; NFF_NS1 screen at 5 µg/mL,I (otherwise these were reported as inactive (I))
COc1cc(O)c2c(c1)C=CCC(O)C(O)C(=O)C=CCC(C)OC2=O (stereo not drawn) [BIA-L1160],T.vaginalis_%inb_Rep1,[1]; [9],12.27%
same,T.vaginalis_%inb_Rep2,[1]; [10],12.76%
same,NFF_Activity,"[2]; NFF cells, screen at 5 µg/mL",I (otherwise these were reported as inactive (I))
"CC(=O)O[C@@H]1[C@@H]2O[C@H]2[C@@](C)(O)C(=O)[C@@H](C)C/C=C\[C@H]2[C@H](O)C(C)=C(C)[C@H]3[C@H](Cc4ccccc4)NC(=O)[C@@]123 [Epoxycytochalasin C, 19,20-]",T.vaginalis_%inb_Rep1,[1]; [6],12.33%
same,T.vaginalis_Absorbance_Rep1,[1]; [7],0.938
same,T.vaginalis_%inb_Rep2,[1]; [8],16.20%
same,T.vaginalis_Absorbance_Rep2,[1]; [7],0.844
same,NFF_Activity,[2]; NFF_NS1 screen at 5 µg/mL,I (otherwise these were reported as inactive (I))
CC[C@H]1OC(=O)[C@H](C)[C@@H](O[C@H]2C[C@@](C)(OC)[C@@H](O)[C@H](C)O2)[C@H](C)[C@@H](O[C@@H]2O[C@H](C)C[C@H](N(C)C)[C@H]2O)[C@](C)(O)C[C@@H](C)C(=NO)[C@H](C)[C@@H](O)[C@]1(C)O [Erythromycin A oxime],T.vaginalis_%inb_Rep1,[1]; [6],3.82%
same,T.vaginalis_Absorbance_Rep1,[1]; [7],0.78
same,T.vaginalis_%inb_Rep2,[1]; [8],4.19%
same,T.vaginalis_Absorbance_Rep2,[1]; [7],0.678
same,NFF_Activity,[2]; NFF_NS1 screen at 5 µg/mL,I (otherwise these were reported as inactive (I))
COc1cc2c(c3oc(=O)c4c(c13)CCC4=O)[C@@H]1CCO[C@@H]1O2 [BIA-A1233],T.vaginalis_%inb_Rep1,[1]; [3],13.46%
same,T.vaginalis_%inb_Rep2,[1]; [4],11.14%
same,NFF_Activity,[2]; [5],I (otherwise these were reported as inactive (I))
CN[C@@H]1C[C@H]2O[C@@](C)([C@@H]1OC)n1c3ccccc3c3c4c(c5c6ccccc6n2c5c31)C(=O)N[C@H]4O [UCN-01],T.vaginalis_%inb_Rep1,[1]; [6],11.33%
same,T.vaginalis_%inb_Rep2,[1]; [8],13.65%
same,NFF_Activity,[2]; [11],A (active (A) compounds having >25% inhibitory activity)
CC[C@H](C)[C@H]1O[C@]2(C=C[C@@H]1C)C[C@@H]1C[C@@H](C/C=C(\C)[C@@H](O[C@H]3C[C@H](OC)[C@@H](O)[C@H](C)O3)[C@@H](C)/C=C/C=C3\CO[C@@H]4[C@H](O)C(C)=C[C@@H](C(=O)O1)[C@]34O)O2 [BIA-A1585],T.vaginalis_%inb_Rep1,[1]; [3],14.27%
same,T.vaginalis_%inb_Rep2,[1]; [4],12.58%
same,NFF_Activity,[2]; [5],I (otherwise these were reported as inactive (I))
CCCCCC(=O)N[C@H]1CCOC1=O [BIA-H1495],T.vaginalis_%inb_Rep1,[1]; [9],10.40%
same,T.vaginalis_%inb_Rep2,[1]; [10],12.70%
same,NFF_Activity,"[2]; NFF cells, screen at 5 µg/mL",I (otherwise these were reported as inactive (I))
O=c1cc2ccocc-2o1 [BIA-K1792],T.vaginalis_%inb_Rep1,[1]; [9],12.93%
same,T.vaginalis_%inb_Rep2,[1]; [10],13.15%
same,NFF_Activity,"[2]; NFF cells, screen at 5 µg/mL",I (otherwise these were reported as inactive (I))
CNC[C@@H]1CC[C@@H](N)[C@@H](O[C@H]2[C@H](O)[C@@H](O[C@H]3OC[C@](C)(O)[C@H](NC)[C@H]3O)[C@H](N)C[C@@H]2N)O1 [Gentamicin C2b],T.vaginalis_%inb_Rep1,[1]; [6],11.00%
same,T.vaginalis_Absorbance_Rep1,[1]; [7],0.919
same,T.vaginalis_%inb_Rep2,[1]; [8],5.20%
same,T.vaginalis_Absorbance_Rep2,[1]; [7],0.716
same,NFF_Activity,[2]; NFF_NS1 screen at 5 µg/mL,I (otherwise these were reported as inactive (I))
CC[C@H](C)[C@H]1O[C@]2(CC[C@@H]1C)C[C@@H]1C[C@@H](C/C=C(\C)[C@@H](O)[C@@H](C)/C=C/C=C3\CO[C@@H]4[C@H](O)C(C)=C[C@@H](C(=O)O1)[C@]34O)O2 [BIA-I1151],T.vaginalis_%inb_Rep1,[1]; [9],12.98%
same,T.vaginalis_%inb_Rep2,[1]; [10],12.38%
same,NFF_Activity,"[2]; NFF cells, screen at 5 µg/mL",I (otherwise these were reported as inactive (I))
O=[N+]([O-])c1ncc[nH]1 [BIA-A1690],T.vaginalis_%inb_Rep1,[1]; [3],15.19%
same,T.vaginalis_%inb_Rep2,[1]; [4],9.83%
same,NFF_Activity,[2]; [5],I (otherwise these were reported as inactive (I))
CC[C@H]1OC(=O)[C@H](C)[C@@H](O[C@H]2C[C@@](C)(OC)[C@@H](O)[C@H](C)O2)[C@H](C)[C@@H](O[C@@H]2O[C@H](C)C[C@H](N(C)C)[C@H]2O)[C@](C)(O)C[C@@H](C)/C(=N\OCOCCOC)[C@H](C)[C@@H](O)[C@]1(C)O [BIA-R1315],T.vaginalis_%inb_Rep1,[1]; [12],1.36%
same,T.vaginalis_%inb_Rep2,[1]; [13],5.85%
same,NFF_Activity,[2]; [14],I (otherwise these were reported as inactive (I))
CCCCCC[C@H]1C(=O)O[C@H](C)[C@@H](O)/C=C/C=C/C=C/C=C/C=C(\C)[C@@H](O)C[C@H](O)C[C@H](O)C[C@H](O)C[C@H](O)C[C@H](O)C[C@@H]1O [Filipin II],T.vaginalis_%inb_Rep1,[1]; [6],13.79%
same,T.vaginalis_Absorbance_Rep1,[1]; [7],0.965
same,T.vaginalis_%inb_Rep2,[1]; [8],25.09%
same,T.vaginalis_Absorbance_Rep2,[1]; [7],0.967
same,NFF_Activity,[2]; NFF_NS1 screen at 5 µg/mL,I (otherwise these were reported as inactive (I))
COc1ccc(C[C@H]2NC[C@H](O)[C@H]2OC(C)=O)cc1 [BIA-A1215],T.vaginalis_%inb_Rep1,[1]; [3],63.76%
same,T.vaginalis_%inb_Rep2,[1]; [4],97.54%
same,NFF_Activity,[2]; [5],I (otherwise these were reported as inactive (I))
C/C=C/c1cc2c(c(=O)o1)[C@H](O)[C@@H](O)[C@H](C)O2 [BIA-R1896],T.vaginalis_%inb_Rep1,[1]; [12],13.39%
same,T.vaginalis_%inb_Rep2,[1]; [13],5.58%
same,NFF_Activity,[2]; [14],I (otherwise these were reported as inactive (I))
CN1C(=O)c2ccccc2-n2c(nc3ccccc3c2=O)C12OC2c1ccccc1 (stereo not drawn) [BIA-B1679],T.vaginalis_%inb_Rep1,[1]; [3],16.96%
same,T.vaginalis_%inb_Rep2,[1]; [4],15.26%
same,NFF_Activity,[2]; [5],I (otherwise these were reported as inactive (I))
Cc1cc(O)cc2oc(=O)c3c(O)cc(O)cc3c12 [BIA-A1926],T.vaginalis_%inb_Rep1,[1]; [3],6.66%
same,T.vaginalis_%inb_Rep2,[1]; [4],9.26%
same,NFF_Activity,[2]; [5],I (otherwise these were reported as inactive (I))
C=CCNC1=C2CC(C)CC(OC)C(O)C(C)C=C(C)C(OC(N)=O)C(OC)C=CC=C(C)C(=O)NC(=CC1=O)C2=O (stereo not drawn) [BIA-A1923],T.vaginalis_%inb_Rep1,[1]; [3],11.27%
same,T.vaginalis_%inb_Rep2,[1]; [4],34.13%
same,NFF_Activity,[2]; [5],I (otherwise these were reported as inactive (I))
COC(=O)c1cc(O)cc(OC)c1Oc1cc(C)cc(O)c1C(=O)O [BIA-A1008],T.vaginalis_%inb_Rep1,[1]; [3],16.05%
same,T.vaginalis_%inb_Rep2,[1]; [4],13.59%
same,NFF_Activity,[2]; [5],I (otherwise these were reported as inactive (I))
CC[C@H]1OC(=O)[C@H](C)[C@@H](O[C@H]2C[C@@](C)(OC)[C@@H](O)[C@H](C)O2)[C@H](C)[C@@H](O[C@@H]2O[C@H](C)C[C@H](N(C)C)[C@H]2O)[C@](C)(O)C[C@@H](C)CN(C)[C@H](C)[C@@H](O)[C@]1(C)O [BIA-A1312],T.vaginalis_%inb_Rep1,[1]; [3],6.35%
same,T.vaginalis_%inb_Rep2,[1]; [4],11.21%
same,NFF_Activity,[2]; [5],I (otherwise these were reported as inactive (I))
CO[C@H]1/C=C\C=C(\C)C[C@H](C)[C@H](O)[C@H](C)/C=C(C)\C=C(\C)C(=O)O[C@@H]1[C@@H](C)[C@@H](O)[C@H](C)[C@@]1(O)C[C@@H](OC(=O)/C=C/C(=O)O)[C@H](C)[C@@H](C(C)C)O1 [TS 155-2],T.vaginalis_%inb_Rep1,[1]; [6],71.89%
same,T.vaginalis_%inb_Rep2,[1]; [8],89.46%
same,NFF_Activity,[2]; [11],I (otherwise these were reported as inactive (I))
C=CC(C)(C)C12CC3C(=O)Nc4ccccc4C(=O)N3C1N(C(C)=O)c1ccccc12 (stereo not drawn) [BIA-A1687],T.vaginalis_%inb_Rep1,[1]; [3],18.36%
same,T.vaginalis_%inb_Rep2,[1]; [4],16.20%
same,NFF_Activity,[2]; [5],I (otherwise these were reported as inactive (I))
C[C@H]1CCN2C[C@]34C[C@@]5(C(=O)Nc6c5ccc5c6OC=CC(C)(C)O5)C(C)(C)[C@@H]3C[C@]12C(=O)N4C [Paraherquamide E],T.vaginalis_%inb_Rep1,"[1]; HTS replicate 1, parasite screen 1 µg/mL",16.63%
same,T.vaginalis_%inb_Rep2,"[1]; HTS replicate 2, parasite screen 1 µg/mL",15.01%
same,NFF_Activity,"[2]; NFF fibroblasts, single concentration 5 µg/mL",I (otherwise these were reported as inactive (I))
COc1ccc2c(c1OC)C(=O)O[C@@H]2[C@H]1c2cc3c(cc2CCN1C)OCO3 [BIA-H1954],T.vaginalis_%inb_Rep1,[1]; [9],11.27%
same,T.vaginalis_%inb_Rep2,[1]; [10],6.40%
same,NFF_Activity,"[2]; NFF cells, screen at 5 µg/mL",I (otherwise these were reported as inactive (I))
COC12c3c(C)cc(O)c4c(=O)occ(c34)C(=O)C1C13COC(=O)c4c(O)cc(C)c(c41)C(=O)C2C3OC(C)=O (stereo not drawn) [Duclauxin],T.vaginalis_%inb_Rep1,[1]; [6],14.59%
same,T.vaginalis_Absorbance_Rep1,[1]; [7],0.98
same,T.vaginalis_%inb_Rep2,[1]; [8],17.79%
same,T.vaginalis_Absorbance_Rep2,[1]; [7],0.866
same,NFF_Activity,[2]; NFF_NS1 screen at 5 µg/mL,I (otherwise these were reported as inactive (I))
